Experimental findings from PMC8480776, “Selenium Derivatives as Promising Therapy for Chagas Disease: In Vitro and In Vivo Studies” (ACS Infectious Diseases, 2021) are described below.

In experiment [1] the test system is T. cruzi epimastigotes, Arequipa strain. As to the kind of experiment: Screening against extracellular epimastigotes, Arequipa strain. It counts as cell-based, Trypanosoma cruzi. The following applies: for IC50: Trypanosoma cruzi, 48 h + 24 h resazurin, read-out: Activity IC50, epimastigote form, Arequipa strain; for Selectivity index (SI), epimastigotes, Arequipa strain: IC50 Vero cells/IC50 epimastigotes. (Resazurin is reduced to fluorescent resorufin, in cell work by metabolically active cells.)

In experiment [2] the test system is T. cruzi epimastigotes, SN3 strain. As to the kind of experiment: Screening against extracellular epimastigotes, SN3 strain. It counts as cell-based, Trypanosoma cruzi. The following applies: for IC50: Trypanosoma cruzi, 48 h + 24 h resazurin, read-out: Activity IC50, epimastigote form, SN3 strain; for Selectivity index (SI), epimastigotes, SN3 strain: IC50 Vero cells/IC50 epimastigotes.

For experiment [3], the system named is T. cruzi epimastigotes, Tulahuen strain. The experiment can be described thus: Screening against extracellular epimastigotes, Tulahuen strain. The experiment is classed as cell-based, Trypanosoma cruzi. The following applies: for IC50: Trypanosoma cruzi, TULAHUEN, 48 h + 24 h resazurin, read-out: Activity IC50, epimastigote form, Tulahuen strain; for Selectivity index (SI), epimastigotes, Tulahuen strain: IC50 Vero cells/IC50 epimastigotes.

For experiment [4], the system named is Vero cells. The experiment can be described thus: Cytotoxicity test on Vero cells. The experiment is classed as cell-based. The following applies: Chlorocebus sabaeus, 48 h + 24 h resazurin, read-out: Toxicity IC50 Vero cell.

As usually defined, the IC50 is the concentration that gives 50% inhibition.

Turning to `O=C(Nc1ccc([Se][Se]c2ccc(NC(=O)c3ccccc3)cc2)cc1)c1ccccc1` [Compound 1], the IC50 in experiment [1], in experiment [2] and in experiment [3] was more than 50 µM each time. Moreover, the CC50 in experiment [4] worked out at 800 ± 44 µM.

Regarding `O=C(Nc1ccc([Se][Se]c2ccc(NC(=O)c3ccc(Cl)cc3)cc2)cc1)c1ccc(Cl)cc1` [Compound 2], the IC50 in experiment [1], in experiment [2] and in experiment [3] was more than 50 µM in each case. The CC50 in experiment [4] worked out at 622 ± 41.9 µM.

For the compound `COc1ccc(C(=O)Nc2ccc([Se][Se]c3ccc(NC(=O)c4ccc(OC)cc4)cc3)cc2)cc1` [Compound 3], the IC50 in experiment [1], in experiment [2] and in experiment [3] was more than 50 µM throughout. The CC50 in experiment [4] amounted to 252 ± 21.6 µM.

With `N#Cc1ccc(C(=O)Nc2ccc([Se][Se]c3ccc(NC(=O)c4ccc(C#N)cc4)cc3)cc2)cc1` [Compound 4], the IC50 in experiment [1], in experiment [2] and in experiment [3] was more than 50 µM in each case. The CC50 in experiment [4] turned out to be 280 ± 34.2 µM.

`O=C(Nc1ccc([Se][Se]c2ccc(NC(=O)c3ccc([N+](=O)[O-])cc3)cc2)cc1)c1ccc([N+](=O)[O-])cc1` [Compound 5]: the IC50 in experiment [1], in experiment [2] and in experiment [3] was more than 50 µM throughout. Also, the CC50 in experiment [4] is 552 ± 43.1 µM.

As to `O=C(Nc1ccc([Se][Se]c2ccc(NC(=O)c3ccc(C(F)(F)F)cc3)cc2)cc1)c1ccc(C(F)(F)F)cc1` [Compound 6], the IC50 in experiment [1], in experiment [2] and in experiment [3] was more than 50 µM throughout. In addition, in experiment [4], the CC50 was found to be 536 ± 39.2 µM.

As to `Cc1ccc(C(=O)Nc2ccc([Se][Se]c3ccc(NC(=O)c4ccc(C)cc4)cc3)cc2)cc1` [Compound 7], the IC50 in experiment [1], in experiment [2] and in experiment [3] was more than 50 µM each time. The CC50 in experiment [4] came to 341 ± 28.3 µM.

For the compound `O=C(Nc1ccc([Se][Se]c2ccc(NC(=O)c3ccco3)cc2)cc1)c1ccco1` [Compound 8], the IC50 in experiment [1], in experiment [2] and in experiment [3] was more than 50 µM each time. Besides, in experiment [4], the CC50 stood at 1250 ± 97.7 µM.

Regarding `O=C(Nc1ccc([Se][Se]c2ccc(NC(=O)c3cccs3)cc2)cc1)c1cccs1` [Compound 9], the IC50 was more than 50 µM in experiment [1], 48 ± 6.4 µM in experiment [2] and more than 50 µM in experiment [3]. In addition, the CC50 in experiment [4] was less than 50 µM.

Regarding `O=C(Nc1ccc([Se][Se]c2ccc(NC(=O)c3ccno3)cc2)cc1)c1ccno1` [Compound 10], the IC50 in experiment [1], in experiment [2] and in experiment [3] was more than 50 µM throughout. Besides, the CC50 in experiment [4] came out at 212 ± 18.7 µM.

As for `O=C(Nc1ccc([Se][Se]c2ccc(NC(=O)C34CC5CC(CC(C5)C3)C4)cc2)cc1)C12CC3CC(CC(C3)C1)C2` [Compound 11], the IC50 in experiment [1], in experiment [2] and in experiment [3] was more than 50 µM in each case. Also, the CC50 in experiment [4] was found to be 226 ± 19.1 µM.

For the compound `O=C(/C=C/c1ccccc1)Nc1ccc([Se][Se]c2ccc(NC(=O)/C=C/c3ccccc3)cc2)cc1` [Compound 12], the IC50 in experiment [1], in experiment [2] and in experiment [3] was more than 50 µM each time. Further, the CC50 in experiment [4] was 280 ± 24.4 µM.

For `O=C(Nc1ccc([Se][Se]c2ccc(NC(=O)c3cccc4ccccc34)cc2)cc1)c1cccc2ccccc12` [Compound 13], the IC50 in experiment [1], in experiment [2] and in experiment [3] was more than 50 µM in each case. The CC50 in experiment [4] amounted to 98.2 ± 12.8 µM.

On to `CSc1ccc(C(=O)Nc2ccc([Se][Se]c3ccc(NC(=O)c4ccc(SC)cc4)cc3)cc2)cc1` [Compound 14], for which the IC50 in experiment [1], in experiment [2] and in experiment [3] was more than 50 µM throughout. Also, the CC50 in experiment [4] was found to be 407 ± 17.8 µM.

On to `COP(=O)(Nc1ccc([Se][Se]c2ccc(NP(=O)(OC)OC)cc2)cc1)OC` [Compound 15], for which the half-inhibitory concentration (IC50) in experiment [1] is 19.6 ± 2 µM; in experiment [2], 12.5 ± 1.1 µM; in experiment [3] it was 14.4 ± 1.7 µM. Besides, the CC50 in experiment [4] was less than 50 µM.

Consider `O=P(Nc1ccc([Se][Se]c2ccc(NP(=O)(Oc3ccccc3)Oc3ccccc3)cc2)cc1)(Oc1ccccc1)Oc1ccccc1` [Compound 16], for which the IC50 in experiment [1], in experiment [2] and in experiment [3] was more than 50 µM each time. Moreover, in experiment [4], the CC50 worked out at 147 ± 11.4 µM.

In the case of `CCOP(=O)(Nc1ccc([Se][Se]c2ccc(NP(=O)(OCC)OCC)cc2)cc1)OCC` [Compound 17], the concentration for half-maximal inhibition (IC50) in experiment [1], in experiment [2] and in experiment [3] was more than 50 µM in each case. For the same compound, the CC50 in experiment [4] amounted to 183 ± 20 µM.

In the case of `CCOP(=S)(Nc1ccc([Se][Se]c2ccc(NP(=S)(OCC)OCC)cc2)cc1)OCC` [Compound 18], the concentration for half-maximal inhibition (IC50) in experiment [1], in experiment [2] and in experiment [3] was more than 50 µM each time. Besides, the CC50 in experiment [4] stood at 182 ± 14.3 µM.

Turning to `O=P(Nc1ccccc1)(Nc1ccc([Se][Se]c2ccc(NP(=O)(Nc3ccccc3)Oc3ccccc3)cc2)cc1)Oc1ccccc1` (stereo not drawn) [Compound 19], the half-maximal inhibitory concentration (IC50) in experiment [1], in experiment [2] and in experiment [3] was more than 50 µM throughout. The CC50 in experiment [4] was less than 50 µM.

On to `Cc1ccc(OP(=O)(Nc2ccc([Se][Se]c3ccc(NP(=O)(Oc4ccc(C)cc4)Oc4ccc(C)cc4)cc3)cc2)Oc2ccc(C)cc2)cc1` [Compound 20], for which the IC50 in experiment [1], in experiment [2] and in experiment [3] was more than 50 µM in each case. In experiment [4], the CC50 is less than 50 µM.

In the case of `N#C[Se]c1ccc(NC(=O)c2ccccc2)cc1` [Compound 21], the IC50 is more than 50 µM in experiment [1], 37.1 ± 4.6 µM in experiment [2] and more than 50 µM in experiment [3]. The CC50 in experiment [4] is less than 50 µM.

As to `N#C[Se]c1ccc(NC(=O)c2ccc(Cl)cc2)cc1` [Compound 22], the 50% inhibitory concentration (IC50) in experiment [1] came to 36.2 ± 2.8 µM; in experiment [2] it was 5.4 ± 0.7 µM; in experiment [3] it was 19.4 ± 1.4 µM. Also, the CC50 in experiment [4] was less than 50 µM.

For the compound `COc1ccc(C(=O)Nc2ccc([Se]C#N)cc2)cc1` [Compound 23], the values for the concentration for half-maximal inhibition (IC50) in experiment [1], in experiment [2] and in experiment [3] were 34.5 ± 2.7 µM, 4.1 ± 0.4 µM and 17.6 ± 2.5 µM, respectively. Further, the CC50 in experiment [4] is less than 50 µM.

In the case of `N#C[Se]c1ccc(NC(=O)c2ccc(C#N)cc2)cc1` [Compound 24], in experiment [1], the “Selectivity index (SI), epimastigotes, Arequipa strain” value was 2 and the IC50 turned out to be 30.5 ± 1.9 µM. For the same compound, in experiment [2], the “Selectivity index (SI), epimastigotes, SN3 strain” value was 7 and the IC50 was 9.8 ± 1.2 µM. Further, in experiment [3], the “Selectivity index (SI), epimastigotes, Tulahuen strain” value amounted to 5 and the IC50 amounted to 15.4 ± 2.1 µM. Besides, in experiment [4], the CC50 was determined as 70.8 ± 5.4 µM.

With `Cc1ccc(C(=O)Nc2ccc([Se]C#N)cc2)cc1` [Compound 27], the IC50 was 4.5 ± 0.7 µM in experiment [1], 4.2 ± 0.3 µM in experiment [2] and 4.9 ± 0.3 µM in experiment [3]. The CC50 in experiment [4] was less than 50 µM.

For `N#C[Se]c1ccc(NC(=O)c2ccno2)cc1` [Compound 30], in experiment [1], the “Selectivity index (SI), epimastigotes, Arequipa strain” value was determined as 9 and the IC50 amounted to 9.8 ± 1 µM. Further, in experiment [2], the “Selectivity index (SI), epimastigotes, SN3 strain” value is recorded as 4 and the half-maximal inhibitory concentration (IC50) turned out to be 24.1 ± 2.3 µM. In experiment [3], the “Selectivity index (SI), epimastigotes, Tulahuen strain” value is 6 and the IC50 was 15.3 ± 1.1 µM. The CC50 in experiment [4] worked out at 86 ± 6.7 µM.

Take `N#C[Se]c1ccc(NC(=O)C23CC4CC(CC(C4)C2)C3)cc1` [Compound 31]: the concentration for half-maximal inhibition (IC50) worked out at 4.6 ± 0.5 µM in experiment [1], 12.5 ± 1.6 µM in experiment [2] and 8.1 ± 0.9 µM in experiment [3]. Besides, in experiment [4], the CC50 is less than 50 µM.
